Measurements: PMC7395068, “The evolution of strategies to minimise the risk of human drug-induced liver injury (DILI) in drug discovery and development” (Archives of Toxicology, 2020)
Read-outs that look alike come from different tables or passages of the source.

Assays:
PHH = conditions: cited from earlier work; for PHH ATP <100uM: In vitro Assay, ref Proctor 2017
[1] = cited from earlier work
HepG2 cells [2] = conditions: cited from earlier work
PHH spheroids = conditions: cited from earlier work
[3] = tested on: HepG2 C3A spheroid, BSEP, Glu/Gal in HepG2 cells, bioactivation; conditions: In vitro Assay; ref Williams 2019; cited from earlier work
hLiMTs [4] = conditions: cited from earlier work; for hLiMTs ATP <100uM: In vitro Assay, ref Proctor 2017
human hepatocytes = conditions: In vitro Assay; ref Xu 2008; cited from earlier work
[5] = cited from earlier work; remark: listed apart in the source
[6] = ref Chen 2011, cited from earlier work
[7] = tested on: isolated mouse liver mitochondria; conditions: In vitro Assay; ref Porceddu 2012; cited from earlier work
HepG2 cells [8] = conditions: cited from earlier work; remark: listed apart in the source
HepG2 cells [9] = conditions: In vitro Assay; ref Persson 2013; cited from earlier work
[10] = tested on: THLE or HepG2 cells, isolated mitochondria, BSEP; conditions: cited from earlier work
[11] = tested on: HepG2 cells, primary human hepatocytes; conditions: In vitro Assay; ref Garside 2014; cited from earlier work
hLiMTs [12] = experiment: Combined HCI (HCS) and cellular ATP 3D assay in hLiMTs; conditions: for AC50 / minimal effective concentration: Homo sapiens
[13] = tested on: THLE-Null and THLE-3A4 cells; conditions: In vitro Assay; ref Gustafsson 2014; cited from earlier work
HepaRG spheroids = experiment: Combined HCI (HCS) and cellular ATP 3D assay in HepaRG spheroids; conditions: HepaRG; for AC50 / minimal effective concentration: Homo sapiens
[14] = In vitro Assay, ref Tolosa 2012
[15] = In vitro Assay, ref Vorrink 2018
[16] = In vitro Assay, ref O'Brien 2006

## Cc1ccccc1C(OCCN(C)C)c1ccccc1 (stereo not shown) [orphenadrine]
PHH
  PHH ATP <100uM: -VE
[1]; ref Chen 2016
  DILI +VE (5-8), DILI -VE (-4): -VE
  DILI severity category: vNo-DILI-Concern
HepG2 cells [2]; [14]
  Structural based (HCI): +VE
PHH spheroids; [15]
  hLiMTs ATP <20 x Cmax: -VE
[3]
  Bayesian Machine Learning: -VE
hLiMTs [4]
  hLiMTs ATP <100uM: -VE
Human hepatocytes
  Structural based (HCI): -VE
[5]; […]
  In vivo DILI: -VE
[5]; ref Proctor 2017
  In vivo DILI: -VE
[5]; ref Tolosa 2012
  In vivo DILI: +VE
[5]; ref Vorrink 2018
  In vivo DILI: -VE
[5]; ref Williams 2019
  In vivo DILI: -VE
[5]; ref Xu 2008
  In vivo DILI: -VE

## O=C1NC(=O)C(c2ccccc2)(c2ccccc2)N1 [phenytoin]
[1]; ref Chen 2016
  DILI +VE (5-8), DILI -VE (-4): +VE
  DILI severity category: vMost-DILI-Concern
HepG2 cells [2]; [14]
  Structural based (HCI): +VE
PHH spheroids; [15]
  hLiMTs ATP <20 x Cmax: -VE
[6]
  DILI Score (FDA) (1-8): 3
Human hepatocytes
  Structural based (HCI): +VE
[5]; […]
  In vivo DILI: +VE
[5]; ref Tolosa 2012
  In vivo DILI: +VE
[5]; ref Vorrink 2018
  In vivo DILI: +VE
[5]; ref Xu 2008
  In vivo DILI: +VE

## CC[C@H](C)C(=O)O[C@H]1C[C@@H](C)C=C2C=C[C@H](C)[C@H](CC[C@@H]3C[C@@H](O)CC(=O)O3)[C@H]21 [lovastatin]
[7]
  in vitro data EC2<=1x Cmax: -VE
  in vitro data EC20<=2uM: +VE
HepG2 cells [2]; [14]
  Structural based (HCI): +VE
HepG2 cells [8]; [16]
  Structural based (HCI): -VE
Human hepatocytes
  Structural based (HCI): -VE

## C[S+](C)[O-] [dimethyl dulfoxide]
HepG2 cells [9]
  Cluser analysis: -VE
  Structural based (HCI): -VE
HepG2 cells [2]; [14]
  Structural based (HCI): -VE
[5]; ref Persson 2013
  In vivo DILI: -VE
[5]; ref Tolosa 2012
  In vivo DILI: -VE

## NCC[C@H](O)C(=O)N[C@@H]1C[C@H](N)[C@@H](O[C@H]2O[C@H](CN)[C@@H](O)[C@H](O)[C@H]2O)[C@H](O)[C@H]1O[C@H]1O[C@H](CO)[C@@H](O)[C@H](N)[C@H]1O [amikacin]
[10]; In vitro Assay, ref Aleo 2019
  Partition Hybrid HRM Score: +VE
  Ro2 Hybrid HRM Score: +VE
[1]; ref Chen 2016
  DILI +VE (5-8), DILI -VE (-4): -VE
  DILI severity category: vNo-DILI-Concern
HepG2 cells [2]; [14]
  Structural based (HCI): -VE
[5]; ref Aleo 2019
  In vivo DILI: -VE
[5]; ref Tolosa 2012
  In vivo DILI: +VE

## OC[C@@H](O)[C@@H](O)[C@H](O)[C@@H](O)CO [sorbitol]
[1]; ref Chen 2016
  DILI +VE (5-8), DILI -VE (-4): -VE
  DILI severity category: vNo-DILI-Concern
HepG2 cells [2]; [14]
  Structural based (HCI): -VE
Human hepatocytes
  Structural based (HCI): -VE
[5]; ref O'Brien 2006
  In vivo DILI: -VE
[5]; ref Tolosa 2012
  In vivo DILI: -VE
[5]; ref Xu 2008
  In vivo DILI: -VE

## CC(=N)S [thioacetamide]
HepG2 cells [2]; [14]
  Structural based (HCI): -VE
Human hepatocytes
  Structural based (HCI): -VE
[5]; ref O'Brien 2006
  In vivo DILI: +VE
[5]; ref Tolosa 2012
  In vivo DILI: +VE
[5]; ref Xu 2008
  In vivo DILI: +VE

## gentamycin
[7]
  in vitro data EC2<=1x Cmax: +VE
  in vitro data EC20<=2uM: +VE
HepG2 cells [2]; [14]
  Structural based (HCI): -VE
HepG2 cells [8]; [16]
  Structural based (HCI): +VE
[5]; […]
  In vivo DILI: -VE
[5]; ref O'Brien 2006
  In vivo DILI: -VE
[5]; ref Porceddu 2012
  In vivo DILI: +VE
[5]; ref Tolosa 2012
  In vivo DILI: -VE

## CCN(CC)CCCC(C)Nc1ccnc2cc(Cl)ccc12 (stereo not shown) [chloroquine]
[10]
  Ro2 Hybrid HRM Score: +VE
[1]; in vivo
  DILI +VE (5-8), DILI -VE (-4): +VE
  DILI severity category: vLess-DILI-Concern
HepG2 cells [2]
  Structural based (HCI): +VE
HepG2 cells [8]
  Structural based (HCI): +VE

## CC(=O)Nc1cccc(O)c1 [3-acetamidophenol]
HepG2 cells [2]; [14]
  Structural based (HCI): -VE
Human hepatocytes
  Structural based (HCI): -VE
[5]; ref O'Brien 2006
  In vivo DILI: -VE
[5]; ref Tolosa 2012
  In vivo DILI: -VE
[5]; ref Xu 2008
  In vivo DILI: -VE

## aflatoxin b1
HepG2 cells [2]
  Structural based (HCI): +VE
PHH spheroids
  hLiMTs ATP <20 x Cmax: +VE (key: +VE: IC20 < 20 × Cmax.tot cut-off)
[5]; in vivo
  In vivo DILI: +VE

## CNCCCC12CCC(c3ccccc31)c1ccccc12 [maprotiline]
[10]; In vitro Assay, ref Aleo 2019
  Partition Hybrid HRM Score: +VE
  Ro2 Hybrid HRM Score: +VE
[1]; ref Chen 2016
  DILI +VE (5-8), DILI -VE (-4): -VE
  DILI severity category: Ambiguous DILI-concern
HepG2 cells [2]; [14]
  Structural based (HCI): +VE
Human hepatocytes
  Structural based (HCI): -VE
[5]; […]
  In vivo DILI: -VE
[5]; ref Tolosa 2012
  In vivo DILI: +VE
[5]; ref Xu 2008
  In vivo DILI: -VE

## CC1=CC(=O)c2ccccc2C1=O [menadione]
HepG2 cells [9]
  Cluser analysis: +VE
  Structural based (HCI): +VE
HepG2 cells [2]; [14]
  Structural based (HCI): +VE
HepG2 cells [8]; [16]
  Structural based (HCI): +VE (lowest HCI endpoint IC50 (or in the absence of dose–response < 100 µM) < 30 × total human plasma exposure levels (Cmax.tot))
[5]; ref O'Brien 2006
  In vivo DILI: -VE
[5]; ref Persson 2013
  In vivo DILI: +VE
[5]; ref Tolosa 2012
  In vivo DILI: +VE

## Cc1cn([C@H]2C=C[C@@H](CO)O2)c(=O)[nH]c1=O [stavudine]
[10]; In vitro Assay, ref Aleo 2019
  Partition Hybrid HRM Score: -VE
  Ro2 Hybrid HRM Score: -VE
PHH
  PHH ATP <100uM: -VE
HepG2 cells [9]
  Cluser analysis: -VE
  Structural based (HCI): +VE
[11]
  Cluster 1-6 +VE Assay: -VE
[1]; ref Chen 2016
  DILI +VE (5-8), DILI -VE (-4): +VE
  DILI severity category: vMost-DILI-Concern
HepG2 cells [2]; [14]
  Structural based (HCI): -VE
PHH spheroids; [15]
  hLiMTs ATP <20 x Cmax: -VE
HepG2 cells [8]; [16]
  Structural based (HCI): -VE
[3]
  Bayesian Machine Learning: +VE
[6]
  DILI Score (FDA) (1-8): 8
hLiMTs [4]
  hLiMTs ATP <100uM: -VE
Human hepatocytes
  Structural based (HCI): -VE
[5]; […]
  In vivo DILI: +VE
[5]; ref Aleo 2019
  In vivo DILI: +VE
[5]; ref Garside 2014
  In vivo DILI: +VE
[5]; ref O'Brien 2006
  In vivo DILI: +VE
[5]; ref Persson 2013
  In vivo DILI: +VE
[5]; ref Proctor 2017
  In vivo DILI: +VE
[5]; ref Tolosa 2012
  In vivo DILI: +VE
[5]; ref Vorrink 2018
  In vivo DILI: +VE
[5]; ref Williams 2019
  In vivo DILI: +VE
[5]; ref Xu 2008
  In vivo DILI: +VE

## CCCCc1oc2ccccc2c1C(=O)c1cc(I)c(OCCN(CC)CC)c(I)c1 [amiodarone]
[7]
  in vitro data EC20<=2uM: +VE
hLiMTs [12]; read-out: ATP endpoint AC50
  AC50: 5.33 µM
hLiMTs [12]; read-out: ATP endpoint MEC
  minimal effective concentration: 4.58 µM
hLiMTs [12]; read-out: HCS endpoint AC50
  AC50: 28.2 µM
hLiMTs [12]; read-out: HCS endpoint MEC
  minimal effective concentration: 6.51 µM
hLiMTs [12]; hLiMTs, all endpoints, cut-off <10 uM
  hLiMTs <10 uM All: +ve (<10 uM)
[13]
  THLE-Null: +VE
PHH; 2D PHH, ATP, IC50 threshold 100 µM, ref Proctor et al. 2017
  PHH/100uM, Proctor (2017): +VE (IC50 threshold of 100 µM)
PHH
  PHH ATP <100uM: +VE (IC50 threshold of 100 µM)
HepG2 cells [9]
  Cluser analysis: +VE
  Structural based (HCI): +VE
HepG2 cells [2]; [14]
  Structural based (HCI): +VE
HepaRG spheroids; all endpoints, cut-off <10 uM
  HepaRG <10 uM All: +ve (<10 uM)
HepaRG spheroids; read-out: ATP endpoint AC50
  AC50: 112 µM
HepaRG spheroids; read-out: ATP endpoint MEC
  minimal effective concentration: 98.8 µM
HepaRG spheroids; read-out: HCS endpoint AC50
  AC50: 13.1 µM
HepaRG spheroids; read-out: HCS endpoint MEC
  minimal effective concentration: 4.62 µM
HepG2 cells [8]; [16]
  Structural based (HCI): +VE
hLiMTs [4]
  hLiMTs ATP <100uM: +VE (IC50 threshold of 100 µM)
hLiMTs [4]; hLiMTs, ATP, IC50 threshold 100 µM, ref Proctor et al. 2017
  hLiMTs/100uM, Proctor (2017): +VE (IC50 threshold of 100 µM)

## C[C@H]1c2cccc(O)c2C(=O)C2=C(O)[C@]3(O)C(=O)C(C(N)=O)=C(O)[C@@H](N(C)C)[C@@H]3[C@@H](O)[C@@H]21 [doxycycline]
[1]; binary in vivo human DILI call, ref Chen 2016
  DILI +VE (5-8), DILI -VE (-4): +VE
[1]; human DILI, LTKB DILIrank category, ref Chen 2016
  DILI severity category: vLess-DILI-Concern
HepG2 cells [2]; [14]
  Structural based (HCI): +VE
[6]; FDA drug labelling score, scale 1-8
  DILI Score (FDA) (1-8): 3
[5]; ref Tolosa 2012
  In vivo DILI: +VE

## CN(C)CCC=C1c2ccccc2CCc2ccccc21 [amitriptyline]
PHH
  PHH ATP <100uM: +VE (IC50 threshold of 100 µM)
HepG2 cells [9]
  Cluser analysis: +VE
  Structural based (HCI): +VE
[11]
  Cluster 1-6 +VE Assay: +VE
[1]; ref Chen 2016
  DILI +VE (5-8), DILI -VE (-4): +VE
  DILI severity category: vLess-DILI-Concern
HepG2 cells [2]; [14]
  Structural based (HCI): +VE
HepG2 cells [8]; [16]
  Structural based (HCI): -VE
hLiMTs [4]
  hLiMTs ATP <100uM: +VE (IC50 threshold of 100 µM)
Human hepatocytes
  Structural based (HCI): -VE
[5]; […]
  In vivo DILI: +VE
[5]; ref Garside 2014
  In vivo DILI: +VE
[5]; ref O'Brien 2006
  In vivo DILI: +VE
[5]; ref Persson 2013
  In vivo DILI: +VE
[5]; ref Proctor 2017
  In vivo DILI: +VE
[5]; ref Tolosa 2012
  In vivo DILI: +VE
[5]; ref Xu 2008
  In vivo DILI: -VE
